In patent US9879058B2, “Use of compounds that selectively modulate astrocytic release of substances through hemichannels of connexins and pannexins, without influencing gap junctions, for the treatment of psychiatric disorders” (Universidad Andres Bello, priority 2012, dated 2018):
Entries after “also recorded” stand apart in the source; their conditions may differ. Where two headings read alike, the source gives them in different places. No end group written: not given here.

Experiments:
Sprague Dowley rats [1] = test: Openfield test; type: in vivo, rat; conditions: for time in the center of the openfield (thigmotaxis): cacotheline 10 μM
Protocol: A. Animals: All procedures involving animals were in accordance to NIH guidelines and with approval of the bioethical committee of the Universidad Andrés Bello. Sprague Dowley rats (˜60 d old, ˜250 g) were caged individually at 22° C., 12/12 h light/dark cycle. The rats remained in their home box throughout the study, and were removed only briefly for drug microinfusions. B. Drugs: For intra hippocampal microinjections Gap19 ([…] (SEQ ID NO: 3), LifeTein, South Plainfield, N.J., USA, >90% purity) was dissolved in PBS to yield a final solution of 100 μM and cacotheline was dissolved in sterile saline to a final concentration of 10 μM. For intravenous injections, cacotheline was dissolved to a final concentration of 10 μM in the blood stream, assuming circulating blood as 7% of body weight. Cacotheline was injected into the caudal vein under 4% isofluorane gas anesthesia. In a control group of rats sterile saline injection of equal volume was injected. C. Dye uptake: Gap junction permeability was determined at room temperature using the scrape-loading/dye transfer (SL/DT) technique, Hela cells were incubated with Carboxy-fluorescin (1 mg/ml) in the same Ca2+ free HEPES-buffered salt solution as above, then the test compound was added, followed byscrape-loading, which was performed with a razor blade. After 3 minutes the cells are washed with HEPES-buffered salt solution and mounted in Fluoromount and examined by epifluorescence. D. Apparatus: All behavioral essays were performed in an openfield made of Plexiglas (60 cm×40 cm) or a dark/light exploration box (70×40 cm; light compartment 40×40 cm, dark compartment 30×40 cm), illuminated by a white light bulb. A video camera was mounted at the top of the chamber to allow digital recording throughout the experiments. E. Surgery and histology: Under ketamine/xylazine anesthesia ([…], respectively), rats were stereotaxically implanted with bilateral 22-gauge stainless steel cannulas aimed 1.0 mm above the ventral hippocampus (5.0 mm posterior to Bregma, 5.0 mm lateral to the midline, and 6.0 mm ventral to the skull surface (Paxinos, G., Watson, C. (1998). The Rat Brain in Stereotaxic Coordinates; Press A, editor, San Diego). The cannulas were fixed with acrylic dental cement and secured by 4 skull screws. A stylus was placed inside the guide cannula to prevent clogging. Rats were given at least 7 days to recover before experimental procedures began.
In all experiments, stylus was removed from the guide cannula, and a 28-gauge injection cannula was inserted through the guide cannula, extending 1.0 mm beyond its tip into the ventral hippocampus. Drugs were infused slowly via the injection cannula, connected by PE20 tubing to Hamilton microsyringes driven by a microinfusion pump. Infusions were of 0.25 μl per hemisphere at a rate of 0.32 μl/min. Following drug infusion, injecting cannulaes were left in place for 10 minutes to allow drug diffusion away from the cannula tip. At the end of all experiments, animals were anesthetized as above and perfused intracardially with saline, 4% buffered paraformaldehyde. Brains were extracted and postfixed in 30% sucrose until density equaled that of sucrose. […] Animals with histological lesions beyond the size of the cannula tip and guide cannula diameter were excluded from the analysis.
F. Behavioral procedures: To assess the effects of TAT-Gap19 on locomotor activity, entire body movements were measured in the openfield and counted as the number of crossings (transitions) between virtual square subdivisions of 10 cm^2 measured offline from digital video recordings. Measures of anxiety included thigmotaxis, rearing activity in the openfield. Transitions between light and dark compartments, number of times the animal peaked from the dark compartment into the lit compartment, and time spent in the lit compartment were measured in the Dark/light box paradigm^(62, 63). G. Data Analysis: Data were expressed as Mean+SD. […]

Sprague Dowley rats [2] = test: Contextual fear conditioning after intravenous injection; type: in vivo, rat; conditions: 10 minutes before training, 10 μM in the blood stream
Protocol: A. Animals: All procedures involving animals were in accordance to NIH guidelines. Sprague Dowley rats (˜60 d old, ˜250 g) were caged individually at 22° C., 12/12 h light/dark cycle. The rats remained in their home box throughout the study, and were removed only briefly for drug microinfusions. B. Drugs: Cacotheline (Pharmeks Ltd. Moscow, Russia) was dissolved in sterile saline to yield a final solution of 10 μM in the blood stream. As a control, only sterile saline injection of equal volume was used. Cacotheline was injected into the caudal vein under 4% isofluorane anesthesia. C. Apparatus: All behavioral essays were performed in a sound attenuating cubicle. Conditioning and testing were conducted in the same chamber. For conditioning, rats were placed in a Plexiglas chamber with a metal grid floor (40 cm×40 cm×40 cm). The chamber was dimly illuminated by a red light. A video camera was mounted at the top of each chamber to allow digital recording throughout the experiments. D. Behavioral procedures: The conditioning is based on the animal learning that a previously neutral stimulus (a conditioned stimulus, CS; e.g. a context) becomes predictive of a stressful stimulus (unconditioned stimulus, US; e.g. footshock). […] During the test, total seconds of freezing (immobility) were calculated for each rat when exposed to the conditioned context for 5 minutes without the footshock. […]

rats = test: Forced swim test (FST); type: in vivo, rat; conditions: intravenous, 10 μM in the blood stream, 10 minutes before the test
Protocol: A. Methods: To assess depressive-like symptoms the forced swim test (FST) was employed, which was similar to that described elsewhere^(65). On training, rats were individually placed in a transparent Plexiglas cylinder (30 cm diameter×60 cm height) filled with water at 25±2° C. for 15 minutes. 24 h later, the animals were placed again in the cylinder for 5 minutes as described before. After initial vigorous swimming activity, swimming attempts normally cease and the animal adopts a characteristic immobile floating posture. Rats were scored for time to reach immobility and total immobility time by a trained observer from offline video recordings. Immobility was defined as the cessation of limb movements. B. Drugs: Cacotheline was dissolved to a final concentration of 10 μM into the blood stream, assuming circulating blood as 7% of body weight. Cacotheline was injected into the caudal vein under 4% isofluorane gas anesthesia 10 minutes before the behavioural test. In a control group of rats sterile saline injection of equal volume was injected. C. […] D. Discussion: A compound capable of increasing Cx43 hemichannel activity was able to decrease immobility in the FST, indication antidepressant effects. […] This implies that Cx43 modulators are useful to treat depression and other mood disorders.

Cx43 gap junctions = biological target: T1, Cx43 gap junctions (Homo sapiens, UniProt P17302); test: Scrape-loading/dye transfer in Cx43 transfected Hela cells; type: cell-based
T1 construct: expressed in transfected cells; host or cells: HeLa
T1 sequence (P17302 whole entry): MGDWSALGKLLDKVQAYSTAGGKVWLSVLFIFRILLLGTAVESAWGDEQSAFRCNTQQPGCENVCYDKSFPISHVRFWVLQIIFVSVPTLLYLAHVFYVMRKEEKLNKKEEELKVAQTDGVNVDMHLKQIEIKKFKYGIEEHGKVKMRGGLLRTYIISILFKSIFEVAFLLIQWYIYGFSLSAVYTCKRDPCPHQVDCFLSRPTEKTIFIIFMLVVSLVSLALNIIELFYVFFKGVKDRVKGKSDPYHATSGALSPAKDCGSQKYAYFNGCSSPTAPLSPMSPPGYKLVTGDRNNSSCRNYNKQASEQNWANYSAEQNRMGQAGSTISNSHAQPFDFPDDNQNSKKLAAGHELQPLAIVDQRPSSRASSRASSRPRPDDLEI
Protocol: Gap junction permeability was determined at room temperature using the scrape-loading/dye transfer (SL/DT) technique, Hela cells were incubated with Carboxy-fluorescin (1 mg/ml) in the same Ca2+ free HEPES-buffered salt solution as above, then the test compound was added, followed by scrape-loading, which was performed with a razor blade. After 3 minutes the cells are washed with HEPES-buffered salt solution and mounted in Fluoromount and examined by epifluorescence.
A. Animals: All procedures involving animals were in accordance to NIH guidelines and with approval of the bioethical committee of the Universidad Andrés Bello. Sprague Dowley rats (˜60 d old, ˜250 g) were caged individually at 22° C., 12/12 h light/dark cycle. The rats remained in their home box throughout the study, and were removed only briefly for drug microinfusions. B. Drugs: For intra hippocampal microinjections Gap19 ([…] (SEQ ID NO: 3), LifeTein, South Plainfield, N.J., USA, >90% purity) was dissolved in PBS to yield a final solution of 100 μM and cacotheline was dissolved in sterile saline to a final concentration of 10 μM. For intravenous injections, cacotheline was dissolved to a final concentration of 10 μM in the blood stream, assuming circulating blood as 7% of body weight. Cacotheline was injected into the caudal vein under 4% isofluorane gas anesthesia. In a control group of rats sterile saline injection of equal volume was injected. C. Dye uptake: Gap junction permeability was determined at room temperature using the scrape-loading/dye transfer (SL/DT) technique, Hela cells were incubated with Carboxy-fluorescin (1 mg/ml) in the same Ca2+ free HEPES-buffered salt solution as above, then the test compound was added, followed byscrape-loading, which was performed with a razor blade. After 3 minutes the cells are washed with HEPES-buffered salt solution and mounted in Fluoromount and examined by epifluorescence. […]

Cx30 hemichannels = biological target: T2, Cx30 hemichannels (Homo sapiens, UniProt O95452); test: EthBr dye uptake in Cx30 transfected Hela cells; type: cell-based
T2 construct: expressed in transfected cells; host or cells: HeLa
T2 sequence (O95452 whole entry): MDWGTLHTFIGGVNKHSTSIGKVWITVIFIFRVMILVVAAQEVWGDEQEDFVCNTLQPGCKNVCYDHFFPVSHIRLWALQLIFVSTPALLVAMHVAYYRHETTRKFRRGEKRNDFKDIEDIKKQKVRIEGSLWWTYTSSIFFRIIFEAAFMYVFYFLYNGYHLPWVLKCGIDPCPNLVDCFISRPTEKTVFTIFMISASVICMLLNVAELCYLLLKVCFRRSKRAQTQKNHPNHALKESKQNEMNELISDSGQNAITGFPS
Protocol: For visualization of dye uptake by captured images, Cx30 transfected Hela cells were exposed to 25 uM EthBr (Invitrogen, Eugene, Oreg.) for 5 min at room temperature. Then, cells were incubated with either HEPES-buffered salt solution containing 140 mM NaCl, 4 mM KCl, 1 mM CaCl2, 1 mM MgCl2, 5 mM glucose, […] or in calcium free HEPES-buffered salt solution (140 mM NaCl, 4 mM KCl, 5 mM glucose, […]). Then the test compound was added to both solutions followed by EthBr dissolved to a final 25 uM concentration. Cells are washed and mounted in Fluoromount and examined by epifluorescence.

Cx30 gap junctions = test: Scrape-loading/dye transfer, Cx30 gap junctions in Hela cells; type: cell-based
Protocol: Gap junction permeability was determined at room temperature using the scrape-loading/dye transfer (SL/DT) technique, Hela cells were incubated with Carboxy-fluorescin (1 mg/ml) in the same Ca2+ free HEPES-buffered salt solution as above. Then the test compound was added. Scrape-loading was then performed with a razor blade. After 3 minutes the cells are washed with HEPES-buffered salt solution and mounted in Fluoromount and examined by epifluorescence.

[3] = microinjected into ventral hippocampus
[4] = microinjected into ventral hippocampus, peptides 100 μM

Molecule	effect on anxiety (Sprague Dowley rats [1]; [3])	time in the center of the openfield (thigmotaxis) (Sprague Dowley rats [1]; [4])	locomotion (transitions) in the openfield (Sprague Dowley rats [1]; [4])	freezing to conditioned context 24 h after training (Sprague Dowley rats [2])	freezing to conditioned context 24 h after training (Sprague Dowley rats [2]; listed as cacotheline)	immobility in the FST (rats)	Cx43 gap junctional coupling (Cx43 gap junctions)	Cx43 gap junctional coupling (Cx43 gap junctions; listed as cacotheline)	locomotion (transitions) in the openfield (Sprague Dowley rats [1]; intravenous, 10 μM in the blood stream)	time in the center of the openfield (thigmotaxis) (Sprague Dowley rats [1]; microinjected into ventral hippocampus, peptides 100 μM, listed as cacotheline)	Cx30 hemichannel activity (Cx30 hemichannels)	Cx30 gap junctional communication (Cx30 gap junctions)	locomotion (transitions) in the openfield (Sprague Dowley rats [1]; microinjected into ventral hippocampus, peptides 100 μM, listed as Pnx1Li)
WRQAAFVDSY [Pnx1]	anxiolytic effects	increase in time at the center of the openfield; also recorded: increasing significantly the time in the center of the openfield	increasing significantly	–	–	–	–	–	–	–	–	–	–
O=C(O)C[C@@H]1OCC=C2CN3CC[C@]45C6=CC(=O)C(=O)C([N+](=O)[O-])=C6N[C@H]4[C@H]1[C@H]2C[C@H]35 [Cacotheline, 2,3-Dihydro-4-nitro-2,3-dioxo-9,10-secostrychnidin-10-oic acid]	anxiolytic effects	significant increase in the time spent in the center of the openfield	–	increased freezing	increase freezing	significant decrease in immobility time	had no effects on Cx43 gap junctional coupling; also recorded: without affecting Cx43 gap junctions	no effects on gap junctional coupling	increase in locomotion at the openfield; also recorded: increase in total locomotion	increase in time at the center of the openfield	–	–	–
YGRKKRRQRRRCYDHFFPVSHIR [TAT-Cx30]	anxiolytic effects	increase in time at the center of the openfield	increase in locomotion at the openfield	–	–	–	had no effects on Cx43 gap junctional coupling	–	–	–	increase in Cx30 hemichannel activity	–	–
YGRKKRRQRRRDAPALYSNLSKKRG [TAT-Cx30L4]	anxiolytic effects	statistically significant increase in the time the animals spent in the center	tendency to increase locomotion	–	–	–	–	–	–	–	increase hemichannel activity	unaffected	–
YGRKKRRQRRRRDLDLRDGP [TAT-Pnx1L5, pannexin 1 mimetic peptide]	anxiolytic effects	increasing significantly the time in the center of the openfield	increased locomotion at the openfield	–	–	–	–	–	–	–	–	–	increasing significantly
